Measured values as given in PubChem BioAssay AID256 (DTP/NCI, 2004).
Inconclusive results and toxic doses are left out. The calls were made as follows: active = survival T/C of 150% or more; inactive = T/C below 125% in these data.

Test system: CD2F1 mice, L1210 leukemia ip, survival T/C
Test: NCI In Vivo Anticancer Drug Screen. Data for tumor model L1210 Leukemia (intraperitoneal) in CD2F1 (CDF1) mice
Conditions: higher = longer survival
Method in brief: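 Read-out first: treated-group measurement over vehicle-control measurement, expressed as a ratio. Animals bore a transplanted tumor line and were dosed with compound or vehicle.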

[1] = endpoint: mean survival time, dose: 100.0 mg/kg/injection, schedule: Q04DX003 (ip), vehicle: saline with Tween-80
[2] = endpoint: mean survival time, dose: 200.0 mg/kg/injection, schedule: Q04DX003 (ip), vehicle: saline with Tween-80
[3] = endpoint: mean survival time, dose: 400.0 mg/kg/injection, schedule: Q04DX003 (ip), vehicle: saline with Tween-80
[4] = endpoint: mean survival time, dose: 100.0 mg/kg/injection, schedule: Q01DX009 (ip), vehicle: saline with Tween-80
[5] = endpoint: mean survival time, dose: 200.0 mg/kg/injection, schedule: Q01DX009 (ip), vehicle: saline with Tween-80
[6] = endpoint: mean survival time, dose: 400.0 mg/kg/injection, schedule: Q01DX009 (ip), vehicle: saline with Tween-80

Measured: T/C

Nc1ccn(C2CC3OCC3O2)c(=O)n1 (stereo unspecified)
inactive: endpoint: median survival time, dose: 12.5 mg/kg/injection, schedule: Q01DX005 (ip), vehicle: saline 97 % of control | endpoint: median survival time, dose: 25.0 mg/kg/injection, schedule: Q01DX005 (ip), vehicle: saline 105 % of control | endpoint: median survival time, dose: 50.0 mg/kg/injection, schedule: Q01DX005 (ip), vehicle: saline 103 % of control | endpoint: median survival time, dose: 100.0 mg/kg/injection, schedule: Q01DX005 (ip), vehicle: saline 110 % of control | endpoint: median survival time, dose: 200.0 mg/kg/injection, schedule: Q01DX005 (ip), vehicle: saline 104 % of control

O=C1c2ccccc2S(=O)(=O)N1CC(O)COc1ccc(Cl)cc1 (stereo unspecified)
inactive: [1] 101 % of control | [2] 101 % of control | [3] 93 % of control

CCOc1ccc(OCC)c(NC(=O)Nc2ccc(OC)cc2)c1
inactive: endpoint: mean survival time, dose: 100.0 mg/kg/injection, schedule: Q04DX002 (ip), vehicle: saline with Tween-80 89 % of control | endpoint: mean survival time, dose: 200.0 mg/kg/injection, schedule: Q04DX002 (ip), vehicle: saline with Tween-80 93 % of control | endpoint: mean survival time, dose: 400.0 mg/kg/injection, schedule: Q04DX002 (ip), vehicle: saline with Tween-80 86 % of control

Cc1ccc(S(=O)(=O)OC2C3OCC(O3)C3OC(C)OC32)cc1 (stereo unspecified)
inactive: [4] 92 % of control | [5] 95 % of control | [6] 95 % of control

O=C1C=CC(=O)N1c1ccccc1[N+](=O)[O-]
inactive: endpoint: mean survival time, dose: 3.0 mg/kg/injection, schedule: Q01DX009 (ip), vehicle: saline with Tween-80 96 % of control | endpoint: mean survival time, dose: 6.0 mg/kg/injection, schedule: Q01DX009 (ip), vehicle: saline with Tween-80 100 % of control | endpoint: mean survival time, dose: 6.25 mg/kg/injection, schedule: Q04DX003 (ip), vehicle: saline with Tween-80 100 % of control | endpoint: mean survival time, dose: 12.0 mg/kg/injection, schedule: Q01DX009 (ip), vehicle: saline with Tween-80 97 % of control | endpoint: mean survival time, dose: 12.5 mg/kg/injection, schedule: Q04DX003 (ip), vehicle: saline with Tween-80 97 % of control

CCNCC
inactive: endpoint: mean survival time, dose: 100.0 mg/kg/injection, schedule: Q01DX009 (ip), vehicle: saline 100 % of control | endpoint: mean survival time, dose: 200.0 mg/kg/injection, schedule: Q01DX009 (ip), vehicle: saline 94 % of control | endpoint: mean survival time, dose: 400.0 mg/kg/injection, schedule: Q01DX009 (ip), vehicle: saline 105 % of control

N#CN=C(N)NC(=O)c1ccccc1
inactive: [1] 102 % of control | [2] 98 % of control

[Cl][Pt][Cl].[NH-]C(CO)C(=O)O (stereo unspecified)
inactive: endpoint: mean survival time, dose: 3.13 mg/kg/injection, schedule: Q04DX003 (ip), vehicle: water 106 % of control | endpoint: mean survival time, dose: 6.25 mg/kg/injection, schedule: Q04DX003 (ip), vehicle: water 113 % of control | endpoint: mean survival time, dose: 12.5 mg/kg/injection, schedule: Q04DX003 (ip), vehicle: water 113 % of control | endpoint: mean survival time, dose: 25.0 mg/kg/injection, schedule: Q04DX003 (ip), vehicle: water 118 % of control | endpoint: mean survival time, dose: 50.0 mg/kg/injection, schedule: Q04DX003 (ip), vehicle: water 119 % of control | endpoint: mean survival time, dose: 100.0 mg/kg/injection, schedule: Q04DX003 (ip), vehicle: water 95 % of control | endpoint: median survival time, dose: 6.25 mg/kg/injection, schedule: Q01DX009 (ip), vehicle: water 117 % of control | endpoint: median survival time, dose: 12.5 mg/kg/injection, schedule: Q01DX009 (ip), vehicle: water 117 % of control | endpoint: median survival time, dose: 25.0 mg/kg/injection, schedule: Q01DX009 (ip), vehicle: water 124 % of control

O=[N+]([O-])O.[NH-]C1CCCCC1[NH-].[NH-]C1CCCCC1[NH-].[NH-]C1CCCCC1[NH-].[OH-].[OH-].[OH-].[Pt+4].[Pt+4].[Pt+4] (stereo unspecified)
inactive: endpoint: mean survival time, dose: 20.0 mg/kg/injection, schedule: Q04DX003 (ip), vehicle: water 87 % of control

C[N+]([O-])(C/C=C/c1ccccc1)c1ccccc1 (stereo unspecified)
inactive: endpoint: mean survival time, dose: 75.0 mg/kg/injection, schedule: Q01DX001 (ip), vehicle: saline 101 % of control | endpoint: mean survival time, dose: 150.0 mg/kg/injection, schedule: Q01DX001 (ip), vehicle: saline 97 % of control | endpoint: mean survival time, dose: 300.0 mg/kg/injection, schedule: Q01DX001 (ip), vehicle: saline 98 % of control

N#CCc1nn(C2OC(CO)C(O)C2O)nc1C(N)=O (stereo unspecified)
inactive: endpoint: median survival time, dose: 8.5 mg/kg/injection, schedule: Q01DX005 (ip), vehicle: water 103 % of control | endpoint: median survival time, dose: 17.0 mg/kg/injection, schedule: Q01DX005 (ip), vehicle: water 103 % of control | endpoint: median survival time, dose: 34.0 mg/kg/injection, schedule: Q01DX005 (ip), vehicle: water 100 % of control | endpoint: median survival time, dose: 38.0 mg/kg/injection, schedule: Q01DX005 (ip), vehicle: water 97 % of control | endpoint: median survival time, dose: 136.0 mg/kg/injection, schedule: Q01DX005 (ip), vehicle: water 100 % of control

Cc1c(N)nc(I)c2ccccc12
inactive: [4] 98 % of control | [5] 93 % of control | [6] 87 % of control

Cc1ccc(NC(=O)c2ccc(C(=O)Nc3ccc(C)cc3)cc2)cc1
inactive: [4] 98 % of control | [1] 87 % of control | [5] 88 % of control | [2] 97 % of control | [6] 93 % of control | [3] 86 % of control

Clc1ncnc2c1ncn2CCCn1cnc2c(Cl)ncnc21
inactive: endpoint: mean survival time, dose: 12.5 mg/kg/injection, schedule: Q01DX009 (ip), vehicle: Klucel (hydroxypropylcellulose) (HPC) 94 % of control | endpoint: mean survival time, dose: 25.0 mg/kg/injection, schedule: Q01DX009 (ip), vehicle: Klucel (hydroxypropylcellulose) (HPC) 90 % of control | endpoint: mean survival time, dose: 50.0 mg/kg/injection, schedule: Q01DX009 (ip), vehicle: Klucel (hydroxypropylcellulose) (HPC) 94 % of control | endpoint: mean survival time, dose: 100.0 mg/kg/injection, schedule: Q01DX009 (ip), vehicle: Klucel (hydroxypropylcellulose) (HPC) 103 % of control | endpoint: mean survival time, dose: 200.0 mg/kg/injection, schedule: Q01DX009 (ip), vehicle: Klucel (hydroxypropylcellulose) (HPC) 101 % of control

CC1CCCCC1O (stereo unspecified)
inactive: endpoint: mean survival time, dose: 50.0 mg/kg/injection, schedule: Q01DX001 (ip), vehicle: carboxymethylcellulose (CMC) 97 % of control | endpoint: mean survival time, dose: 50.0 mg/kg/injection, schedule: Q01DX009 (ip), vehicle: saline with Tween-80 103 % of control | endpoint: mean survival time, dose: 100.0 mg/kg/injection, schedule: Q01DX001 (ip), vehicle: carboxymethylcellulose (CMC) 108 % of control | [4] 103 % of control | endpoint: mean survival time, dose: 100.0 mg/kg/injection, schedule: Q04DX003 (ip), vehicle: saline 103 % of control | endpoint: mean survival time, dose: 200.0 mg/kg/injection, schedule: Q01DX001 (ip), vehicle: carboxymethylcellulose (CMC) 92 % of control | [5] 95 % of control | endpoint: mean survival time, dose: 200.0 mg/kg/injection, schedule: Q04DX003 (ip), vehicle: saline 103 % of control | endpoint: mean survival time, dose: 400.0 mg/kg/injection, schedule: Q01DX001 (ip), vehicle: carboxymethylcellulose (CMC) 100 % of control | endpoint: mean survival time, dose: 400.0 mg/kg/injection, schedule: Q04DX003 (ip), vehicle: saline 95 % of control
